TGI and GI50 data for 10 compounds are collected here from PubChem BioAssay (NCI).

SMILES strings stand for the structures.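 Briefly, cells in 96-well plates were exposed to five compound concentrations for 48 h, and endpoints were estimated by linear interpolation. GI50 = concentration required for 50% inhibition of growth. Definition used: TGI = concentration required for complete inhibition of growth.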

Holding throughout (assay): NCI tumour cell line growth inhibition, 48 h
In assay [1] the test system is SN12C renal.
For assay [2], the system named is A549 NSCLC.
For assay [3], the system named is HOP-92 NSCLC.
In assay [4] the test system is MOLT-4 leukemia.
In assay [5] the test system is UACC-62 melanoma.
For assay [6], the system named is NCI-H23 lung.
Assay [7] has as its system HL-60(TB) leukemia.
The subject of assay [8] is U251 CNS.
Assay [9] deals with SNB-19 CNS.
Assay [10] deals with NCI-H460 lung.

As for `CCc1cccc(C)c1NC(=O)CCc1nnc2s/c(=C\c3cccc4ccccc34)c(=O)n12`, the TGI in assay [1], in assay [2], in [3], in assay [4], in [5] and in assay [6] was more than 100 µM in each case. For the same compound, the TGI in assay [7], in assay [8], in assay [9] and in assay [10] was more than 100 µM in each case.
As for `CCOc1ccc(/C(C=O)=C(\Cl)c2ccc(OC)cc2)cc1`, the TGI in [1] was more than 100 µM; in assay [2], more than 100 µM; in [3] it was more than 100 µM; in assay [4] it was more than 31.6 µM; in [5] it was more than 100 µM; in [6], more than 100 µM. In addition, the TGI in [7], in [8], in assay [9] and in [10] was more than 100 µM each time.
On to `Cc1cc(C)c2c(n1)sc1c(N)ncnc12`, for which the GI50 in [1] is more than 22.3 µM; in [2], more than 25 µM; in assay [3], 1.43 µM; in assay [4] it was more than 25 µM; in assay [5], more than 25 µM; in [6] it was more than 25 µM. Also, the GI50 in [7], in assay [8], in assay [9] and in [10] was more than 25 µM in each case. Further, the TGI in [1] was more than 25 µM; in assay [2], more than 25 µM; in [3], more than 14 µM; in assay [4], more than 25 µM; in [5], more than 25 µM; in [6] it was more than 25 µM. Further, the TGI in [7], in [8], in assay [9] and in assay [10] was more than 25 µM in each case.
Consider `CN1CCN(CCOc2ccc(-c3cnc4c(-c5cccc(F)c5)cnn4c3)cc2)CC1`, for which the GI50 in assay [1] was 1.82 µM; in assay [2], 1.9 µM; in [3], 1.41 µM; in assay [4], 2.15 µM; in assay [5], 1.73 µM; in assay [6] it was 1.87 µM. Moreover, the GI50 in assay [7] was 2.1 µM; in [8] it was 1.64 µM; in [9], 1.72 µM; in assay [10] it was 1.72 µM. The TGI in assay [1] turned out to be 3.76 µM; in assay [2] it was 3.94 µM; in assay [3] it was 3.2 µM; in assay [4], 4.82 µM; in [5], 3.29 µM; in assay [6] it was 3.72 µM. Further, the TGI turned out to be 4.36 µM in assay [7], 3.57 µM in assay [8], 3.8 µM in assay [9] and 3.19 µM in assay [10].
On to `CC1(c2cc3c(cc2Br)OCO3)SCCCS1`, for which the TGI in assay [1] is more than 100 µM; in assay [2], more than 100 µM; in assay [3] it was 51.7 µM; in assay [4] it was 96.2 µM; in assay [5] it was more than 100 µM; in assay [6] it was 45.5 µM. Moreover, the TGI was 65.9 µM in assay [7], more than 100 µM in assay [8], more than 100 µM in assay [9] and more than 100 µM in assay [10].
Turning to `Cc1cccc2c1c1ccc3c(c1n2C)C(=O)C=CC3=O`, the TGI was 12.8 µM in assay [1]; 37.7 µM in assay [2]; 4.34 µM in assay [3]; 2.99 µM in [4]; 26.5 µM in [5]; 29.3 µM in [6]. Also, the TGI was 2.94 µM in assay [7], 25.8 µM in [8], 32.3 µM in assay [9] and 37.8 µM in assay [10].
For `N#C/C(=C\c1cccc(O)c1O)C(N)=O`, the TGI in assay [1], in assay [2], in assay [3], in assay [4], in assay [5] and in assay [6] was more than 100 µM each time. Moreover, the TGI in [7] was 31.1 µM; in assay [8] it was more than 100 µM; in assay [9], more than 100 µM; in [10] it was more than 100 µM.
As for `CC1CN(S(=O)(=O)c2oc(-c3ccc(Cl)cc3)nc2C#N)CC(C)O1` (stereo not given), the GI50 in assay [1] was 1.7 µM; in [2] it was 15.5 µM; in assay [3] it was 1.78 µM; in [4], 1.19 µM; in assay [5], 3.08 µM; in assay [6] it was 3.99 µM. The GI50 was 2.09 µM in assay [7], 9.4 µM in [8], 12.5 µM in assay [9] and 11.5 µM in assay [10]. The TGI in assay [1] came to 3.23 µM; in assay [2] it was 32.9 µM; in assay [3] it was 3.45 µM; in assay [4], 4.5 µM; in [5] it was 11 µM; in assay [6] it was 15.9 µM. The TGI was found to be 5.84 µM in [7], 22.7 µM in assay [8], 25 µM in assay [9] and 26 µM in assay [10].
For `Cc1ncc(C(=O)Nc2ccc(CN3CCN(C)CC3)c(C(F)(F)F)c2)cc1C#Cc1ccc(N)nc1`, the GI50 in assay [1] was 0.135 µM; in [2] it was 0.531 µM; in assay [3], 0.116 µM; in assay [4], 0.155 µM; in [5] it was 0.153 µM; in [6] it was 0.6 µM. Also, the GI50 in assay [7] is 0.29 µM; in [8], 0.483 µM; in [9], 1.22 µM; in assay [10], 0.19 µM. Moreover, the TGI was found to be 2.25 µM in [1]; 4.41 µM in [2]; 0.935 µM in assay [3]; 7.52 µM in [4]; 0.854 µM in [5]; 4.13 µM in assay [6]. The TGI in assay [7] was found to be 1.91 µM; in assay [8], 4.95 µM; in [9], 5.06 µM; in assay [10], 1.84 µM.
Regarding `Cc1ccc(S(=O)(=O)N=NC=C2c3ccccc3N(O)c3ccccc32)cc1`, the TGI was determined as 16.6 µM in assay [1]; 20 µM in [2]; 19.5 µM in assay [3]; 4.11 µM in [4]; 18.8 µM in assay [5]; 19.3 µM in assay [6]. In addition, the TGI in [7] is 4.62 µM; in assay [8], 13.1 µM; in [9] it was 24.2 µM; in assay [10], 5.99 µM.
